Data from the NIST ThermoML archive (doi:10.1016/j.jct.2012.06.030).

Experiment: molar heat capacity at constant pressure; xn = mol fraction of the nth substance listed
Details: 101 kPa, Liquid, Small sample (50 mg) DSC

CCCCCC[n+]1ccc2ccccc2c1.N#C[S-] [2-hexylisoquinolinium thiocyanate] + O
molar heat capacity at constant pressure [J/K/mol]
Details	x1 = 0.2887	x1 = 0.4013	x1 = 0.5043	x1 = 0.6059	x1 = 0.6997	x1 = 0.7864	x1 = 0.8824	x1 = 1
318.15 K	197	229	276	309	346	361	404	450
323.15 K	198	230	277	311	348	363	406	453
328.15 K	198	232	278	312	350	365	409	456
333.15 K	199	233	280	314	352	367	411	458
338.15 K	200	234	281	316	353	369	413	461
343.15 K	201	235	283	318	355	371	415	463
